Assay results published in patent US20230093311A1, “HEAT TOLERANCE OR DRYING TOLERANCE IMPROVING AGENT, SALT TOLERANCE IMPROVING AGENT, ACTIVITY IMPROVING AGENT FOR PLANT” (priority 2020, published 2023).
Like-named read-outs stand apart in the source and are kept apart here.

Assays:
[1] = test system: aromaticus (Plectranthus amboinicus); assay: Activation test 4 (induction of roots); details: cuttings dipped in 200 mL testing solution (0.06% (w/w) acetic acid, or 0.24% (w/w) malic acid and 0.06% (w/w) acetic acid, pH=6.0), raised 2 weeks
[2] = test system: spinach; assay: Activation test 5 (maintenance of freshness and water after harvest); assay type: in vivo, Spinacia oleracea; details: 100 mL/plant at root on the day before harvest, humidity 40%
Method: 18 hours later, the aerial part was harvested by cutting at the root with a cutter, and 5 bunches were wrapped with a piece of newspaper having the same area (30 cm×45 cm) among samples. Four types in total of test groups (20 individuals in total) including all the test groups were placed in a plastic bag (25 cm×[…]), positioned in an upright posture with the mouth of the bag opened, and stored in a refrigerator of 4° C. with a humidity of 40%. Time-dependent change in the weight of each individual was measured with a weight scale. […] The mean and standard deviation of change in the weights of 20 individuals at each time per group were determined.

[3] = test system: Peperomia (Peperomia albovittata); assay: Activation test 1 (induction and growth of flower buds); details: 50 mL at root, 24 hours: 20 mM acetic acid alone, or 20 mM acetic acid and 0.075 μM malic acid, 22° C., humidity 40%, left standing 3 weeks
[4] = test system: Spinach (Spinacia oleracea); assay: Activation test 2 (plant growth, plant size after harvest); assay type: in vivo; details: pH=6.0, 50 mL at root 3 times, harvest 45 days after first irrigation
Method: Spinach (Spinacia oleracea of the family Amaranthaceae) budded from seeds direct-seeded in a farm field in a plastic greenhouse was used. During the test period, each plant was watered twice a day at 6 a.m. and 4 p.m. from an automatically controlled irrigation system. 2 weeks after budding, a seedling having three to five true leaves was irrigated, at its root, with 50 mL of each testing solution given below. 2 weeks and 4 weeks after the initial irrigation treatment, the plant was irrigated again with 50 mL of the testing solution (irrigated a total of 3 times). […] The average weight and standard deviation of the plants in each test group were calculated. […] The results of the Welch test in these and following drawings mean *: p<0.05 and **: p<0.01. The testing solutions used are as described below. Testing solutions prepared in the same way were also used in activation tests 3 to 6 given below. […] Malic acid treatment group 2: 0.24% (w/w) aqueous malic acid solution Acetic acid treatment group 2: 0.06% (w/w) aqueous acetic acid solution Treatment group 2: aqueous solution containing 0.24% (w/w) malic acid and 0.06% (w/w) acetic acid Each solution was adjusted to pH=6.0 using KOH.

[5] = test system: stem lettuce (Lactuca sativa L.); details: humidity 40%; for survival rate: 50 mL of 10 mM aqueous acetic acid solution at root, 24 hours, then 42° C., continuous light, no water supply
Method: (§1) A plant that was irrigated, at its root, with 50 mL of water and allowed to absorb it over 24 hours was assigned to water treatment group 1, and a plant that was irrigated, at its root, with 50 mL of a 10 mM aqueous acetic acid solution and allowed to absorb it over 24 hours was assigned to acetic acid treatment group 1.
(§2) The survival rate was calculated by counting the number of stem lettuce seedlings that were not killed by firing.

[6] = test system: Carrot (Daucus carota subsp. sativus); assay: Activation test 3 (root growth, plant size after harvest); assay type: in vivo; details: 0.24% (w/w) malic acid, 0.06% (w/w) acetic acid, or both, pH=6.0; 50 mL at root 3 times; harvest 90 days after first irrigation; Welch test
Method: Carrot (Daucus carota subsp. sativus of the family Apiaceae) budded from seeds direct-seeded in a farm field was used.
During the test period, each plant was watered by natural rainfall.
2 weeks after budding, a seedling having four to five true leaves was irrigated, at its root, with 50 mL of each testing solution. 3 weeks and 6 weeks after the initial irrigation treatment, the plant was irrigated again with 50 mL of the testing solution (irrigated a total of 3 times).
90 days after the first irrigation treatment, plant individuals were harvested, and aerial parts (leaf parts) were cut off to prepare edible root parts. Then, the wet weights of 100 individuals per test group were measured. Top 10% and bottom 10% of the data were removed, and the average weight and standard deviation of the plants in each test group were calculated as to the remaining 80 individuals.

[7] = test system: tomato (breed: Momotaro, Solanum lycopersicum); details: for survival rate: 50 mL at root, 24 hours: 20 mM acetic acid alone, or 10 mM acetic acid and 10 mM malic acid, then 50° C., humidity 10%, no water supply
Method: as §1, with “3,” for “1,”, “20” for “10”, “3. Also, a plant that was irrigated, at its root, with 50 mL of an aqueous solution containing 10 mM acetic acid and 10 mM malic acid and allowed to absorb it over 24 hours was assigned to treatment group 3.” for “1.”
as §2

[8] = test system: Swamp chrysanthemum (Leucanthemum paludosum); assay: Activation test 6 (induction and growth of flower buds); assay type: in vivo; details: for number of new flower buds compared with water treatment group 6: pots dipped in 200 mL testing solution 24 hours, apical buds cut off, counted 3 weeks later, 0.24% (w/w) malic acid, 0.06% (w/w) acetic acid, or both, pH=6.0
Text: Swamp chrysanthemum (Leucanthemum paludosum of the family Compositae) raised in a 9 cm pot was used. […] All apical buds of the plants thus treated with the solution were cut off (pinched) with scissors.

SMILES	new roots confirmed [1]	effect of maintaining the freshness of plants after harvest ([2]; stored at 4° C.)	reduction preventing effect on decrease in water content compared with water treatment group 5 ([2]; after 96 hours at 4° C., 0.06% (w/w) acetic acid, or with 0.24% (w/w) malic acid)	water retaining effect compared with water treatment group 5 and malic acid treatment group 5 ([2]; at and after 12 hours from the start of refrigeration, 4° C.)	number of flower buds after flowering that grew into 3 cm or larger ([3]; water treatment group 0)	number of flower buds formed before flowering ([3]; water treatment group 3)	increase in wet weight ([4]; against water treatment group 2, 0.06% (w/w) acetic acid, or 0.24% (w/w) malic acid and 0.06% (w/w) acetic acid, 20 individuals)	ability of plants to tolerate drying at a high temperature ([5]; 10 mM acetic acid, 42° C., compared with water treatment group 1)	survival rate ([5]; left standing 5 days)	survival rate ([5]; still standing 7 days)	significant difference in wet root weight after harvest against water treatment group 3 [6]	survival rate ([7]; still standing 3 days)	survival rate ([7]; still standing 4 days)	ability to tolerate drying at a high temperature (order of groups) ([7]; order: acetic acid+malic acid treatment group 3, acetic acid treatment group 3, water treatment group 3)	new formation and formation of apical buds and flower buds ([8]; conclusion of activation test 6)	number of new flower buds compared with water treatment group 6 [8]	significant difference in the rate of decrease in wet weight against water treatment group 5 ([2]; 0.24% (w/w) malic acid, pH=6.0, stored at 4° C.)	significant difference in wet weight against water treatment group 2 ([4]; 0.24% (w/w) aqueous malic acid solution, Welch test)
CC(=O)O [acetic acid]	New roots were confirmed in neither	effect of maintaining the freshness of plants after harvest was shown	7.1%	marked water retaining effect	0	5	122%	potentiated the ability of plants to tolerate drying at a high temperature	100%	100%	No significant difference	100%	0%	more potentiated	can promote the new formation and formation of apical buds and flower buds	increase in the number of flower buds	–	–
O=C(O)CC(O)C(=O)O (centres unmarked) [malic acid]	–	–	–	–	–	–	–	–	–	–	No significant difference	–	–	–	–	No significant difference	No significant difference	No significant difference
